Paper PMC4929832 (Nature, 2016)

Tests used:
[1] = biological target: PDGFR-ALPHA (Homo sapiens, UniProt P16234); assay: kinase panel; type: biochemical
[2] = biological target: SLK (Homo sapiens, UniProt Q9H2G2); assay: kinase panel; type: biochemical
[3] = biological target: P38-ALPHA (Homo sapiens, UniProt Q16539); assay: kinase panel; type: biochemical
[4] = biological target: HIPK4 (Homo sapiens, UniProt Q8NE63); assay: kinase panel; type: biochemical
[5] = biological target: HIPK1 (Homo sapiens, UniProt Q86Z02); assay: kinase panel; type: biochemical
[6] = biological target: CLK1 (Homo sapiens, UniProt P49759); assay: kinase panel; type: biochemical
[7] = biological target: ZAP70 (Homo sapiens, UniProt P43403); assay: kinase panel; type: biochemical
[8] = biological target: MEK2 (Homo sapiens, UniProt P36507); assay: kinase panel; type: biochemical
[9] = biological target: PRKD2 (Homo sapiens, UniProt Q9BZL6); assay: kinase panel; type: biochemical
PRKD2, sequence (Q9BZL6 whole entry): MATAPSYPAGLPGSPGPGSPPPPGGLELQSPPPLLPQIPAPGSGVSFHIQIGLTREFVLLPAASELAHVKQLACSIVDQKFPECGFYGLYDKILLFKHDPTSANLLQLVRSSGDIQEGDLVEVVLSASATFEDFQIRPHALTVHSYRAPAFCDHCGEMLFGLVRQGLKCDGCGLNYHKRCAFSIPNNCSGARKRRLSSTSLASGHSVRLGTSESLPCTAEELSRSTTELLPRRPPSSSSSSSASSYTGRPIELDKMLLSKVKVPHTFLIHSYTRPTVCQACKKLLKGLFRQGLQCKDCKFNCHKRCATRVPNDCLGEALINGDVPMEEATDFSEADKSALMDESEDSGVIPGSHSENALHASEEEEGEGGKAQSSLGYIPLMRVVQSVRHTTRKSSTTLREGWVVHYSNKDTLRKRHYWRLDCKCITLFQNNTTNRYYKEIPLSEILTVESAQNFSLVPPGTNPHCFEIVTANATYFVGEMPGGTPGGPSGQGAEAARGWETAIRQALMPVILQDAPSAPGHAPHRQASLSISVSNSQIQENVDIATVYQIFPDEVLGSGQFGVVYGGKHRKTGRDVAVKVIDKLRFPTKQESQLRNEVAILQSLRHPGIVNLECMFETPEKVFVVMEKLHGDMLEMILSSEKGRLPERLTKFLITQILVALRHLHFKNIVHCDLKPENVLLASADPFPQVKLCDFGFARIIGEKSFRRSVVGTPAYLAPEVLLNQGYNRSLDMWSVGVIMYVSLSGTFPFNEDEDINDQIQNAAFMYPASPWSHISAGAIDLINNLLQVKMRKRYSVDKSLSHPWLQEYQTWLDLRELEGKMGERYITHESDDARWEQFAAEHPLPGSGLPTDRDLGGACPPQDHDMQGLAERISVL

[10] = biological target: DYRK4 (Homo sapiens, UniProt Q9NR20); assay: kinase panel; type: biochemical
[11] = biological target: P38-GAMMA (Homo sapiens, UniProt P53778); assay: kinase panel; type: biochemical
[12] = biological target: PI3K-ALPHA (Homo sapiens, UniProt P42336); assay: kinase panel; type: biochemical
PI3K-ALPHA, sequence (P42336 whole entry): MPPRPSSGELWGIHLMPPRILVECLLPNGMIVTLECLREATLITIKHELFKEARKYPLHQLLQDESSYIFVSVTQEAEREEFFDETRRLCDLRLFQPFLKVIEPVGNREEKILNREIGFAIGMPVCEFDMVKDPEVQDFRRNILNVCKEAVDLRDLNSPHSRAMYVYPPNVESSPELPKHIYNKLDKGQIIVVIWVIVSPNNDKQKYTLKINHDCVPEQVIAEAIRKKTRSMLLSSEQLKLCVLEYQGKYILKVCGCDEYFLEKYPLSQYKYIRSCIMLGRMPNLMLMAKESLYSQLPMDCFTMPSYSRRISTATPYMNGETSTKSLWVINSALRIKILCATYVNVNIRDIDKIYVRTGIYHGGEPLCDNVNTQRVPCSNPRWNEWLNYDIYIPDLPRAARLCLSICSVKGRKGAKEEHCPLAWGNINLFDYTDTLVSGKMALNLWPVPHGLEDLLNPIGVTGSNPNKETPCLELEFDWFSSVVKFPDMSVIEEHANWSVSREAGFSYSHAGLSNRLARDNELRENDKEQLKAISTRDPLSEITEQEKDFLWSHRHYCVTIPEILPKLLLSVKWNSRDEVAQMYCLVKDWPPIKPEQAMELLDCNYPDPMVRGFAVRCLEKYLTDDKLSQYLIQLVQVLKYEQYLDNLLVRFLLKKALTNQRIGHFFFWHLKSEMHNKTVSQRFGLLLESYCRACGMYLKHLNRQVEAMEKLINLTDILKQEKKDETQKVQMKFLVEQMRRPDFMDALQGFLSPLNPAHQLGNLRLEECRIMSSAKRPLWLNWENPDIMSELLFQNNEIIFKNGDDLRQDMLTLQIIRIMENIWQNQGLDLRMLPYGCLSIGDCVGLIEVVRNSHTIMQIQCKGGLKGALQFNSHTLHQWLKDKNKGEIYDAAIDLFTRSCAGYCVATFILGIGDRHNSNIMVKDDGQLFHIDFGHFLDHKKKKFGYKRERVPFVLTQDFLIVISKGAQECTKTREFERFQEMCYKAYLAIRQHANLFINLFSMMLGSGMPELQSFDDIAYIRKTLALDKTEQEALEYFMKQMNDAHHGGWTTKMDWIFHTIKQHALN
PI3K-ALPHA, sequence (P27986 whole entry partner): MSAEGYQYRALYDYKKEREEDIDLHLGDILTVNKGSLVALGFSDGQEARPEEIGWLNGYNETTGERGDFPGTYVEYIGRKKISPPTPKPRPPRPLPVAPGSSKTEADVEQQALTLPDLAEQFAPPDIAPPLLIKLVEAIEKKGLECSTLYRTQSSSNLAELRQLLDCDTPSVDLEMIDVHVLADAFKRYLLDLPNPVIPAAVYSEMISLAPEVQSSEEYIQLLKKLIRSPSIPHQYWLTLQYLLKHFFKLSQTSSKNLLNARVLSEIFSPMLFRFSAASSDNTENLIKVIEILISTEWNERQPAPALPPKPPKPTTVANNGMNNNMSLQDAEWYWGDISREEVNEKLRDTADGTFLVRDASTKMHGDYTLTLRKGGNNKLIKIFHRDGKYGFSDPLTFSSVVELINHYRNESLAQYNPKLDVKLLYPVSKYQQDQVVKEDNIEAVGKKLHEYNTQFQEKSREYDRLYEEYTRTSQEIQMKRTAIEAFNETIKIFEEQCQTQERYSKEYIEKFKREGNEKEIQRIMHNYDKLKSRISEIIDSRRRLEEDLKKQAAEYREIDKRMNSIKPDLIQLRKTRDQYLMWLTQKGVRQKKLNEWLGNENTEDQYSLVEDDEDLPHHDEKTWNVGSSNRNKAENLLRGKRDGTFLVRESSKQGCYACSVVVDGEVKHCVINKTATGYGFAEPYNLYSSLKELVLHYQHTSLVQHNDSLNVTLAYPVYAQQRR

[13] = biological target: TSSK1 (Homo sapiens, UniProt Q9BXA7); assay: kinase panel; type: biochemical
[14] = biological target: DAPK3 (Homo sapiens, UniProt O43293); assay: kinase panel; type: biochemical
[15] = biological target: P38-BETA (Homo sapiens, UniProt Q15759); assay: kinase panel; type: biochemical
[16] = biological target: BTK (Homo sapiens, UniProt Q06187); assay: kinase panel; type: biochemical
[17] = biological target: BLK (Homo sapiens, UniProt P51451); assay: kinase panel; type: biochemical
[18] = biological target: CDK5-P25 (Homo sapiens, UniProt Q00535); assay: kinase panel; type: biochemical
[19] = biological target: MAPKAPK3 (Homo sapiens, UniProt Q16644); assay: kinase panel; type: biochemical
[20] = biological target: DYRK1B (Homo sapiens, UniProt Q9Y463); assay: kinase panel; type: biochemical
[21] = biological target: GRK5 (Homo sapiens, UniProt P34947); assay: kinase panel; type: biochemical
[22] = biological target: CDK5 (Homo sapiens, UniProt Q00535); assay: kinase panel; type: biochemical
[23] = biological target: Adrenergic Alpha 2C receptor (Homo sapiens, UniProt P18825); assay: Adrenergic Alpha 2C receptor assay; type: binding
[24] = biological target: LOK (Homo sapiens, UniProt O94804); assay: kinase panel; type: biochemical
[25] = biological target: CAMK2B (Homo sapiens, UniProt Q13554); assay: kinase panel; type: biochemical
[26] = biological target: MST3 (Homo sapiens, UniProt Q9Y6E0); assay: kinase panel; type: biochemical
[27] = biological target: MAP4K4 (Homo sapiens, UniProt O95819); assay: kinase panel; type: biochemical
MAP4K4, sequence (O95819 whole entry): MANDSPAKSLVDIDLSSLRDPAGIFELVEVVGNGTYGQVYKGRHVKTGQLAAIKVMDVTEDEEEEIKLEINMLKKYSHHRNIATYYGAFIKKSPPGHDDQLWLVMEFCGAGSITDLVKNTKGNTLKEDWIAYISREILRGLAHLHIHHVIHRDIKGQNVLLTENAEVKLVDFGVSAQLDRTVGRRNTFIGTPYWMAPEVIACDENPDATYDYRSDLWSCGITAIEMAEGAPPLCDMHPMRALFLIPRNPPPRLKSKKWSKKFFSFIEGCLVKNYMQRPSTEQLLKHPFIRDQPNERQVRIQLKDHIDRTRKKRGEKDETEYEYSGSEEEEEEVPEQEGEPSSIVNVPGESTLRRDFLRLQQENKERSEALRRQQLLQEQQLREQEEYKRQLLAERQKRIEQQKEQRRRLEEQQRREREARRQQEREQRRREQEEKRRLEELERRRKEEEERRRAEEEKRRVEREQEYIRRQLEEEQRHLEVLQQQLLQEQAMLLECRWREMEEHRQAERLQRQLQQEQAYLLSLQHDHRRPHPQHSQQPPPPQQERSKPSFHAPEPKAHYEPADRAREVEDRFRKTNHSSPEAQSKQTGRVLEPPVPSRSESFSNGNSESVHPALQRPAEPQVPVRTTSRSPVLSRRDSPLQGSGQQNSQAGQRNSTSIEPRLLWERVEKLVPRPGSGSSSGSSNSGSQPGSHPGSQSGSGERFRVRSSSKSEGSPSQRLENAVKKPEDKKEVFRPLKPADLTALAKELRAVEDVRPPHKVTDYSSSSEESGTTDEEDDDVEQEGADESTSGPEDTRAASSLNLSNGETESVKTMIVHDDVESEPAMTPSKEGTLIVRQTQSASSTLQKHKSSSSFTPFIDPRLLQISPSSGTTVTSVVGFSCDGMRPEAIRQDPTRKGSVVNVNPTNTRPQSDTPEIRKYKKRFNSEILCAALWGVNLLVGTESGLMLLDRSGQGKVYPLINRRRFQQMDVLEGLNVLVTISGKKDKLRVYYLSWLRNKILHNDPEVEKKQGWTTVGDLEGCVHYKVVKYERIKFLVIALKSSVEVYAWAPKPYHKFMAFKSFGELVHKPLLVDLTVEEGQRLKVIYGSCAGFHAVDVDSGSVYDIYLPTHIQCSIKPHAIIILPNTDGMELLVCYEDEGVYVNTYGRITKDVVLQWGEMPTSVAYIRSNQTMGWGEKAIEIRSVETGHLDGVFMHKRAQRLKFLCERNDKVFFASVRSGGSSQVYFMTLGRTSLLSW

[28] = biological target: P38-DELTA (Homo sapiens, UniProt O15264); assay: kinase panel; type: biochemical
[29] = biological target: PRKG2 (Homo sapiens, UniProt Q13237); assay: kinase panel; type: biochemical
[30] = biological target: BRAF (Homo sapiens, UniProt P15056); assay: kinase panel; type: biochemical
[31] = biological target: TRKB (Homo sapiens, UniProt Q16620); assay: kinase panel; type: biochemical
[32] = biological target: Dopamine D2 receptor (Homo sapiens, UniProt P14416); assay: Dopamine D2 receptor assay; type: binding
[33] = biological target: PXR Receptor (Homo sapiens, UniProt O75469); assay: PXR Receptor antagonist assay; type: cell-based
[34] = biological target: MAPK3 (Homo sapiens, UniProt P27361); assay: kinase panel; type: biochemical
[35] = biological target: NDR2 (Homo sapiens, UniProt Q9Y2H1); assay: kinase panel; type: biochemical
[36] = biological target: PRKG1 (Homo sapiens, UniProt Q13976); assay: kinase panel; type: biochemical
[37] = biological target: CRAF (Homo sapiens, UniProt P04049); assay: kinase panel; type: biochemical
[38] = biological target: Beta 1 adrenergic receptor (Homo sapiens, UniProt P08588); assay: Beta 1 adrenergic receptor assay; type: binding
[39] = biological target: SRMS (Homo sapiens, UniProt Q9H3Y6); assay: kinase panel; type: biochemical
[40] = system: CYP3A4; assay: CYP3A4 Induction Reporter Gene; type: cell-based; conditions: human, CYP3A4 induction reporter gene assay (cell line not given)
[41] = biological target: PI3K-BETA (Homo sapiens, UniProt P42338); assay: kinase panel; type: biochemical
PI3K-BETA, sequence (P42338 whole entry): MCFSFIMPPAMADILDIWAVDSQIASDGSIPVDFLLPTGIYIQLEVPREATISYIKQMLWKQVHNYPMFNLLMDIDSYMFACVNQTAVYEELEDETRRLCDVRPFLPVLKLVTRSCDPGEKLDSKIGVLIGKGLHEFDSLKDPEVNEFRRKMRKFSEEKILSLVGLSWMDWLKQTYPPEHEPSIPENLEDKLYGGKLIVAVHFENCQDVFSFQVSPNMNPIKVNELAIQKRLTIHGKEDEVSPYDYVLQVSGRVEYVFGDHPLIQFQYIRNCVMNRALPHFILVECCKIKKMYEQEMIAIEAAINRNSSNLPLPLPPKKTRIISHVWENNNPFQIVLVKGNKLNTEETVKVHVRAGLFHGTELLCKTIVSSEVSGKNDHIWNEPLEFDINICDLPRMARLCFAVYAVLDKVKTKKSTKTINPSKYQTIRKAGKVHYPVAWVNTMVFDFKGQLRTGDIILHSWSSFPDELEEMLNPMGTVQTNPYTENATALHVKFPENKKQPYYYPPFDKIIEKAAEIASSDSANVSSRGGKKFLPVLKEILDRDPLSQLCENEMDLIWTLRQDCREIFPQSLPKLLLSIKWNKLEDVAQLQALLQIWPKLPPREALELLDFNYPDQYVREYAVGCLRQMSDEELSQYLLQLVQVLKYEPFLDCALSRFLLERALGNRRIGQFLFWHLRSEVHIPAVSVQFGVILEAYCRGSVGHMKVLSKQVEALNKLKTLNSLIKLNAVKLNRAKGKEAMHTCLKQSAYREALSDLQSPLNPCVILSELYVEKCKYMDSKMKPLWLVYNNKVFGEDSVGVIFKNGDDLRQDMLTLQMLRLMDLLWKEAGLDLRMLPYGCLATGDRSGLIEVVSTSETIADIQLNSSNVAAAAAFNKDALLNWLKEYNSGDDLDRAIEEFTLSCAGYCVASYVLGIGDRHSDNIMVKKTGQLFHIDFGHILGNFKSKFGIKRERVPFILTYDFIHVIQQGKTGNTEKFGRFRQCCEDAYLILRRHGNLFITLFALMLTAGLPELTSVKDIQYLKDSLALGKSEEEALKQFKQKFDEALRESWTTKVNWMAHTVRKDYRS
PI3K-BETA, sequence (P27986 whole entry partner): as the sequence (P27986 whole entry partner) above

[42] = biological target: FGFR1 (Homo sapiens, UniProt P11362); assay: kinase panel; type: biochemical
[43] = biological target: SPHK1 (Homo sapiens, UniProt Q9NYA1); assay: kinase panel; type: biochemical
[44] = biological target: Dopamine Transporter (Homo sapiens, UniProt Q01959); assay: Dopamine Transporter assay; type: binding

inhibition at 1 µM [1]: 0% | inhibition at 1 µM [2]: 0% | inhibition at 1 µM [3]: 0% | inhibition at 1 µM [4]: 0% | inhibition at 1 µM [5]: 1% | inhibition at 1 µM [6]: 0% | inhibition at 1 µM [7]: 1% | inhibition at 1 µM [8]: 0% | inhibition at 1 µM [9]: 2% | inhibition at 1 µM [10]: 1% | inhibition at 1 µM [11]: 2% | inhibition at 1 µM [12]: 0% | inhibition at 1 µM [13]: 2% | inhibition at 1 µM [14]: 1% | inhibition at 1 µM [15]: 0% | inhibition at 1 µM [16]: 0% | inhibition at 1 µM [17]: 3% | inhibition at 1 µM [18]: 0% | inhibition at 1 µM [19]: 0% | inhibition at 1 µM [20]: 2% | inhibition at 1 µM [21]: 0% | inhibition at 1 µM [22]: 0% | IC50 [23]: > 30 µM | inhibition at 1 µM [24]: 1% | inhibition at 1 µM [25]: 0% | inhibition at 1 µM [26]: 0% | inhibition at 1 µM [27]: 2% | inhibition at 1 µM [28]: 0% | inhibition at 1 µM [29]: 8% | inhibition at 1 µM [30]: 0% | inhibition at 1 µM [31]: 3% | IC50 [32]: > 30 µM | IC50 [33]: > 3 µM | inhibition at 1 µM [34]: 0% | inhibition at 1 µM [35]: 0% | inhibition at 1 µM [36]: 0% | inhibition at 1 µM [37]: 0% | IC50 [38]: > 30 µM | inhibition at 1 µM [39]: 0% | IC50 [40]: > 10 µM | inhibition at 1 µM [41]: 0% | inhibition at 1 µM [42]: 5% | inhibition at 1 µM [43]: 0% | IC50 [44]: > 30 µM
Compound: O=C(Nc1nccs1)C(c1cc(F)ccc1O)N1Cc2ccccc2C1=O (centres unmarked) [EAI045, 2-(5-fluoro-2-hydroxyphenyl)-2-(1-oxo-2,3-dihydro-1H-isoindol-2-yl)-N-(1,3-thiazol-2-yl)acetamide]
